The test system of this assay is Arabidopsis thaliana ecotype Col-0 seedlings. The assay is described as follows: Phytotoxicity test on Arabidopsis thaliana seedlings in hydroponics, visual analysis of chlorosis. It is filed as in vivo. Particulars: for herbicidal activity: at the concentration tested (125 pM), 48 h; for Activity after 48h: herbicidal activity, concentration of 125 pM, 48 h after application, seedlings at the cotyledon stage, max 1% DMSO. The procedure: Biological tests have been carried out under axenic conditions on Arabidopsis thaliana ecotype Col-0 seedlings cultured in hydroponics at the cotyledon stage. Sterilised seeds have been sown in microplates (10 seeds per well containing 200 μL of distilled water) and cultured for 10-13 days at 22° C. under a 16 h/8 h (day/night) photoperiod lighting. The treatment has been carried out by replacing the culture medium with an equivalent volume of water containing the molecule to be tested dissolved in DMSO. The maximum DMSO concentration in the treated wells was 1% by volume. A control has therefore been set up with the presence of DMSO at this concentration. The phytotoxicity of the treatment has been evaluated after 48 h of culture, by visual analysis of the chlorosis induced.
By way of comparison, tests have also been carried out under the same conditions as for compounds (Ia1), (Ia2), (Ia3) and (IC1), but with two comparative compounds not forming part of the invention: • a compound (2) including a diphenol ring in place of the chromene ring, and • a compound (3) including a chromene ring but not including an -L-Ar group. All compounds have been tested at a concentration of 125 pM.
Herbicidal activity is indicated by A for Active in the event that the plant is killed, i.e. when both cotyledons have lost all their green coloration, 48 h after application of the product.
The absence of herbicidal activity is indicated by “N” for Not active, in the case where no biological activity is observed

With `Oc1cc(O)cc(CCc2ccccc2)c1` [Compound 2], the herbicidal activity entry is “no herbicidal activity” and the “Activity after 48h” value is “N”.
The like results for `Cc1cc(O)c2c(c1)OC(C)(C)C=C2` [Compound 3] were, in that order, “no herbicidal activity” and “N”.

The values above are taken from patent publication US20250160327A1, “USE OF CHROMENE OR CHROMANE DERIVATIVES AS HERBICIDAL AGENTS” (ECOLE POLYTECHNIQUE, priority 2022, published 2025).
